In data set [1] the test system is mice. Description: Hypothermia (rectal temperature). The format is in vivo, mouse. The conditions noted are these: sc. How it is done: (§1) Interruptions of the photocell beams (two banks of eight cells each) were then recorded for the next 10 min. Data were expressed as number of photocell interruptions. Rectal temperature was measured by a thermistor probe (inserted 24 mm) and digital thermometer (Yellow Springs Instrument Co., Yellow Springs, Ohio). […] The difference in rectal temperature before and after treatment was calculated for each mouse. The ambient temperature of the laboratory varied from 21 to 24° C. from day to day.

For data set [2], the system named is mice. Put plainly: Antagonism of nicotine antinociception, tail-flick. The format is in vivo, mouse. As to conditions: for AD50 Tail-Flick: mice pretreated sc 10 min before nicotine 2.5 mg/kg sc. How it is done:
(§2) In the tail-flick method of D'Amour and Smith, (D'Amour, F. E.; Smith, D. L. J. Pharmacol. Exp. Ther. 1941, 72, 74-79), the tail is exposed to a heat lamp and the amount of time taken for the animal to move (flick) its tail away from the heat is recorded. […] Mice were placed into a 10-cm wide glass cylinder on a hot plate (Thermojust Apparatus) maintained at 55.0° C. Two control latencies at least 10 min apart were determined for each mouse. […] The reaction time was scored when the animal jumped or licked its paws. The mice were tested 5 min after subcutaneous (sc) injections of nicotinic ligands for the dose-response determination. Antinociceptive response was calculated as percentage of maximum possible effect (% MPE, where % MPE=[(test−control)/(maximum latency−control)×100]).
(§3) Nicotine was administered at a dose of 2.5 mg/kg, sc (an ED84 dose), and mice were tested 5 min later. ED50 and AD50 values with 95% confidence limits were determined.

The test system of data set [3] is mice. Description: Tail-flick test (antinociception). The format is in vivo, mouse. The conditions noted are these: sc; for Tail-Flick, % effect at dose: @ 10 mg/kg. How it is done:
as §2
Background: Thermal pain tests record how soon the animal reacts.

Data set [4] relates to mice. Put plainly: Hot-plate test (antinociception). The data set is classed as in vivo, mouse. As to conditions: sc; for Hot-Plate, % effect at dose: @ 10 mg/kg. How it is done:
as §2

For data set [5], the system named is mice. Put plainly: Antagonism of nicotine antinociception, hot-plate. The data set is classed as in vivo, mouse. The conditions noted are these: for Antagonism Hot-Plate, % at dose: before nicotine 2.5 mg/kg sc. How it is done: as §2, §3
The target in the next data set is α4β2 nAChR (Rattus norvegicus (Rat), UniProt P09483+P12390). Description: Inhibition of [3H]epibatidine binding at the α4β2 nAChR in male rat cerebral cortex. As to conditions: read-out: αβ [3H]Epibatidine (Ki).
α4β2 nAChR, sequence (P09483 31-630 limits assumed): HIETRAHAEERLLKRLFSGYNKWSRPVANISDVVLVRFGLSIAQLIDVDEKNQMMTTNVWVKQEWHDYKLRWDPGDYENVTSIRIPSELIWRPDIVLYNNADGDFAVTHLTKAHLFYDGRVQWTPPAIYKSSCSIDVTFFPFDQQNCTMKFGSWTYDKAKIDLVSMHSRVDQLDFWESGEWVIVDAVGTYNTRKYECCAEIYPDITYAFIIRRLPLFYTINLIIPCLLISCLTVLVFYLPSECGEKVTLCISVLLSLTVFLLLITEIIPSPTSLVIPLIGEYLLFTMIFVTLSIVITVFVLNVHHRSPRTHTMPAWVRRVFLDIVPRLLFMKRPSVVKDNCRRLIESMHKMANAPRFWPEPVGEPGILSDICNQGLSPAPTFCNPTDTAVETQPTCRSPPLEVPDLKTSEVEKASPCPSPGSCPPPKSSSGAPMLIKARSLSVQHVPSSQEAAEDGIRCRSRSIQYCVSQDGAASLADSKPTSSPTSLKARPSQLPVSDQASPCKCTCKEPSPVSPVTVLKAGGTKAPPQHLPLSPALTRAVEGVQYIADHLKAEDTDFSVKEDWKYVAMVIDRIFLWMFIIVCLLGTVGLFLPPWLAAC
α4β2 nAChR, sequence (P12390 25-500 limits assumed): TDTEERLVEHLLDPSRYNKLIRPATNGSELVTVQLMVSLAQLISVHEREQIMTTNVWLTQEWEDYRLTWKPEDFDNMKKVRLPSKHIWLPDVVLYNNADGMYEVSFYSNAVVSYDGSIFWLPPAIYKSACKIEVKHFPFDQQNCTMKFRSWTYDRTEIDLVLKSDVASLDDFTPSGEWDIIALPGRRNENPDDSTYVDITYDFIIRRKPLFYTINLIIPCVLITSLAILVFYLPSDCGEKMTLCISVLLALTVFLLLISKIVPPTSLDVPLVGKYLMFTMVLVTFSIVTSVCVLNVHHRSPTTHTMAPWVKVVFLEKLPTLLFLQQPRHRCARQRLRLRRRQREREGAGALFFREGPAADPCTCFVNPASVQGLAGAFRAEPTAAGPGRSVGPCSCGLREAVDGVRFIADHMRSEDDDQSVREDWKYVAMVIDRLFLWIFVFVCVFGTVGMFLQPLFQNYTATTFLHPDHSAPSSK
Data set [6] has as its system mice. Put plainly: Spontaneous activity (photocell activity cages). The format is in vivo, mouse. The conditions noted are these: sc. How it is done: as §1
Another data set addresses α7 nAChR (Rattus norvegicus (Rat), UniProt Q05941). The data set is classed as binding. As to conditions: read-out: α7 [125I]iodoMLA (Ki).
In data set [7] the test system is Male Sprague-Dawley rats. The data set is classed as in vivo, rat. As to conditions: compound alone (FIG. 3). On the procedure: A drug discrimination assay was performed to measure the relevant effects of nicotine as it influences tobacco use and abuse. In a drug discrimination assay, food restricted rates are trained to make one response (select one of two nose-poke apertures in the test chamber) following administration of a particular drug, and a different response (select the other aperture) following administration of saline. The appropriate response is followed by delivery of food, and there is no cue as to which aperture will result in food delivery other than the presence or absence of the drug. Once trained, the animals respond on the “drug-associated” aperture following drug administration and on the “saline-associated” aperture following saline administration. In addition, administration of drug doses that are smaller than the training dose produce intermediate responses on the drug-associated aperture such that monotonically increasing dose-response curves can be generated in drug discrimination assays.
Male Sprague-Dawley rats were obtained from Harlan, Inc (Indianapolis, Ind.) and singly housed in polycarbonate cages with water continuously available. All rats weighed approximately 280-290 gms at the start of the experiment. A food-restricted diet of Purina rodent food allowed the animals to grow but maintain motivation to respond to earn food pellets. A 12 hr light-dark cycle turned the lights on at 7:00 am. Standard operant conditioning chambers (ENV-008, Med-Associates, St Albans, Vt.) were used for establishing and evaluating the nicotine discrimination. Each chamber contains two nose-poke devices with apertures containing yellow LED lights on either side of a dipper capable of delivering 50 μl of fluid into a third opening.
Initially, each rat was trained to insert its nose into one of the apertures and received vanilla-flavored Ensure as a consequence. During discrimination training, rats designated in the small dose group were injected with either saline or 0.32 mg/kg of nicotine. Ten consecutive responses on the appropriate lever (one side following saline administration; the other side following nicotine administration) was followed by presentation of the Ensure for 10 s, followed by a 10 s timeout. Selection of the incorrect lever, and completion of the 10 consecutive responses in this lever results in a 10 s timeout. Criteria for learning the discrimination are 1) responding on the first FR of the session is completed on the injection appropriate aperture; 2) >85% of the total session responses are made on the injection-appropriate aperture.
Each session was divided into several components of 25 min duration. Following an injection, the first five minutes of each component were black out, and the stimulus lights were illuminated for the remaining 20 min, during which injection-appropriate responses were reinforced.
One to four components comprised daily sessions Animals were injected with saline or nicotine prior to the start of the session, or following one or more of the […] components. Possible injection conditions were (S=saline, N=nicotine) S—S—S—S; N; S—N; S—S—N; S—S—S—N. Nicotine administration is always given in the final component if it is given at all.
If a potential antagonist was given, it was administered prior to the session at a time determined by earlier studies to be sufficient for peak effects to be established. The session components then comprised increasing doses of nicotine, each given before consecutive blackout periods. No more than two antagonist sessions were given each week, and once each month a nicotine dose-response curve was determined to assure no changes in sensitivity to nicotine. Full generalization to the nicotine discriminative cue is defined by >85% responding on the drug-associated aperture and completing at least one FR.
A second, large-nicotine trained group of rats were treated in an identical manner except that their training dose of nicotine is 1.78 mg/kg. […]

A further data set has as its system Male ICR adult mice. The data set is classed as in vivo, mouse.
Data set [8] has as its system Male Sprague-Dawley rats. As to conditions: rats, s.c., compound alone. How it is done:
Male Sprague-Dawley rats (approximately 300 g) were obtained from Harlan, Inc. (Indianapolis, Ind.) and group-housed upon arrival. Food and water were freely available for all rats at all times. Housing and experimental rooms were maintained on a 12 h light/dark cycle with lights on at 7:00 AM with an average temperature of 21° C.
Surgical Procedures. To measure changes in heart rate and mean arterial pressure, rats were implanted with telemetric transmitters (TA11PAC40 or TL11M2-C50-PXT, Data Sciences International, Transoma Medical Inc., St. Paul, Minn., USA) under ketamine (90 mg/kg, i.p.) and xylazine (10 mg/kg, i.p.) anesthesia. An incision is made in the skin approximately 1 in to the left or right of the spine and over the left or right thigh to expose the femoral artery. The transmitter is placed into the incision on the dorsal side and into a subcutaneous pocket (made by separating the connective tissue between the skin and muscle) on the side of the abdomen. This positioning prevents the rats from manipulating the incision site and gaining access to the transmitter. The catheter extending from the base of the transmitter is threaded subcutaneously, placed 3 cm into the femoral artery, and secured with suture. Incisions were closed with 5.0 Ethicon nylon monofilament suture. Following surgery, rats were singly-housed and monitored for at least 7 days for signs of recovery (normal eating, drinking, and defecating patterns) prior to experimentation. All rats continued to have free access to food and water at all times.
Telemetry System. The system consists of battery-operated transmitters surgically implanted (described above), Physiotel® receivers, the DSI Data Exchange Matrix, and the Dataquest A.R.T. system, which collects and stores digital data from the receiver onto a computer (Data Sciences International, Transoma Medical Inc., St. Paul, Minn., USA). Blood pressure and heart rate data were analyzed by the Dataquest A.R.T. Gold Analysis 3.01 software.
At the start of an experiment, rats' home cages were placed on top of the receivers, and baseline data was collected for at least 1 h to allow heart rate and blood pressure to return to resting levels. All rats were given a saline injection to ensure that they are habituated to the injection and handling procedure on the test day. After heart rate and blood pressure returned to resting levels again, rats were injected with a treatment, consisting either of a single drug dose or a pretreatment drug administered 15 min prior to a test drug. Data was collected for at least 2 h following the last injection. All injections were administered subcutaneously (s.c.) in a volume of 1 ml/kg.
Each rat was used to evaluate multiple experimental conditions, such that each rat may receive as many as 4-6 different treatments, one per week with at least 6 days between drug exposures. […] Once the rats weigh approximately 450 g (body weight at time of transmitter implant: 300-350 g), the rat is no longer used for experiments, and the transmitter is removed.
Data were collected throughout baseline, before, and after drug treatments. The analysis program calculated an average heart rate and mean arterial pressure (MAP) every 10 sec. These 10 secepochs are then averaged over 1 min per rat, and data from at least 6 rats were averaged for each treatment group.

α7 nAChR, sequence (Q05941 23-502 limits assumed): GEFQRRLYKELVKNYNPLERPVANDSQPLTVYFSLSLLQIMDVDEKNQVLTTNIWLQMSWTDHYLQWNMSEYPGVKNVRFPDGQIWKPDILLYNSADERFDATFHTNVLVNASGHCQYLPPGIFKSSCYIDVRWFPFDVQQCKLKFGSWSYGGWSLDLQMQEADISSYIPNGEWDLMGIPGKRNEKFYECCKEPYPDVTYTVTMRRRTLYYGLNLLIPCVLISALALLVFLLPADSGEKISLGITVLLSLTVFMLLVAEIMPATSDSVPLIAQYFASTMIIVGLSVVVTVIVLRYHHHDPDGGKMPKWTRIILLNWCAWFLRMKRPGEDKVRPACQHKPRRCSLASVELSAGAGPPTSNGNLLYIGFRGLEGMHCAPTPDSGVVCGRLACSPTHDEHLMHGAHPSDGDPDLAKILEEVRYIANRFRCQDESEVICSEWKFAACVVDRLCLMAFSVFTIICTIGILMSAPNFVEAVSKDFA

Usually Ki stands for the equilibrium dissociation constant of an inhibitor or competing ligand from its target. “2-exo-2-Fluoro-3-(4′-benzamide)deschloroepibatidine Hydrochloride [RTI-7527-168]”: in the data set on mice [1], the “ED50 Hypothermia” value was 4.2 mg/kg. Also, the “AD50 Tail-Flick” value in the data set on mice [2] amounted to 0.009 mg/kg. Besides, the “Tail-Flick, % effect at dose” value in the data set with mice [3] was 16% @ 10. In addition, the “Hot-Plate, % effect at dose” value with mice [4] turned out to be 60% @ 10. The “Antagonism Hot-Plate, % at dose” value with mice [5] (@ 2000 μg/kg) is on record as 1% @. Besides, the Ki at α4β2 nAChR turned out to be 0.00012 ± 2.1e-05 µM; on α7 nAChR, 1.87 µM. In addition, the “ED50 Spontaneous Activity” value in the data set with mice [6] worked out at 3.5 mg/kg.

Broadly, the ED50 is the dose at which the effect has come halfway, by size or by number of responders. Low values mean an effect at a small dose, high ones a need for a large dose. As for `c1cnc2cc3c(cc2n1)[C@@H]1CNC[C@H]3C1` [varenicline, reference compound], the ED50 in the data set on mice [1] (Mus musculus) was determined as 2.8 mg/kg; with mice [6] (Mus musculus) it was 2.1 mg/kg. In the data set on mice [2], the “AD50 Tail-Flick” value came out at 0.0002 mg/kg. Besides, the “Tail-Flick, % effect at dose” value with mice [3] is on record as 11% @ 10. In the data set with mice [4], the “Hot-Plate, % effect at dose” value is 10% @ 10. The “AD50 Hot-Plate” value in the data set on mice [5] (mice pretreated sc 10 min before nicotine 2.5 mg/kg sc) stood at 0.47 mg/kg. In the data set on Male Sprague-Dawley rats [7], the “Nicotine-like discriminative stimulus effects” value was “nearly full nicotine-like discriminative stimulus effects”. At α7 nAChR, the Ki was 0.0325 µM. The “Preference or aversion induced by compound itself in CPP” value in the data set on Male ICR adult mice (compound alone at the doses used) was “without a significant effect on its own”. Moreover, the “Blockade of nicotine CPP” value with Male ICR adult mice (mouse, s.c. 10 min prior to nicotine 0.5 mg/kg, several doses) was “dose-dependently blocked nicotine CPP”. Also, the “Effect on blood pressure” value with Male Sprague-Dawley rats [8] is “substantial increases in blood pressure”.

For “2-exo-2-Fluoro-3-(3′-benzamide)deschloroepibatidine Hydrochloride [RTI-7527-169]”, the “ED50 Hypothermia” value with mice [1] is on record as 1.7 mg/kg. The “Antagonism Tail-Flick, % at dose” value in the data set with mice [2] (@ 500 μg/kg, before nicotine 2.5 mg/kg sc) was found to be 10% @ 500. The “ED50 Tail-Flick” value in the data set on mice [3] (tested 5 min after injection) stood at 5.6 mg/kg. Also, the “ED50 Hot-Plate” value with mice [4] (tested 5 min after injection) came to 3.6 mg/kg. Besides, the “Antagonism Hot-Plate, % at dose” value in the data set on mice [5] (@ 500 μg/kg) was 20% @. For the same compound, the inhibition constant Ki on α4β2 nAChR was 0.00036 ± 8.8e-05 µM; on α7 nAChR it was 0.87 µM. Besides, the “ED50 Spontaneous Activity” value with mice [6] was 1 mg/kg.
